Experimental data as given in patent US11512085B2, “Heteroaryl compound having drug activity” (SHANGHAI DUDE MEDICAL TECHNOLOGY CO., LTD, priority 2017, dated 2022).

Tests used:
[1] = Human liver microsome stability test; assay type: in vitro ADME
Protocol: Preparation of Buffer Solution:
1. 100 mM potassium phosphate buffer solution, pH of 7.4
Preparation of Test Compound Solution:
1. A test compound solution (10 mM, 5 μL) was diluted with a methanol solution (495 μL), and a 100 μM solution was prepared;
2. Preparation of a working solution: the above solution (50 μL) was diluted with the potassium phosphate buffer solution (450 μL, 100 mM) so as to obtain diluents (10 μM).
NADPH Regeneration System (Final Concentration 1 Unit/mL of Isocitrate Dehydrogenase):
1. beta-NADP, supplier: sigma Cat. No. N0505
3. isocitrate dehydrogenase, supplier: sigma Cat. No. 12002
Cold acetonitrile containing 100 ng/mL of tolbutamide and 100 ng/mL of labetalol serves as an internal standard
1. a 10 μL/well of working solution was added into plates (T0, T5, T10, T20, T30, T60, NCF60) beyond the blank;
2. a 80 μL/well of microsome solution was added, and incubation was performed at 37° C. for 10 min;
3. a 10 μL of 100 mM phosphate buffer solution was added into each well of an NCF60 plate, the plate was placed in a warm bath at 37° C., and timing started;
4. a 10 μL/well of NADPH regeneration system was added after preheating, and a reaction started;
5. incubation was performed at 37° C., and timing started
6. a 300 μL/well of stop solution was added (4° C., containing 100 ng/mL of tolbutamide and 100 ng/mL of labetalol) to end the reaction;
7. the plate was shaken for 10 min;
8. centrifugation was performed at 4° C. at a rotation speed of 4000 rpm; and
9. sample LC/MS/MS detection was performed.
Data Analysis Use Equation of First Order Kinetics to Calculate t½ and Clint(Mic): […]
equation of first order kinetics: […]

OCI-LY10 = assay: In vitro tumor cell proliferation (CellTiter-Glo), OCI-LY10; assay type: cell-based; conditions: Homo sapiens, OCI-Ly10, 72 h; read-out: Growth IC50
Protocol: (§1) Biological Embodiment 8: Study on Effects of Active Compounds for Inhibiting In Vitro Tumor Cell Proliferation
(§2) Promega CellTiter-Glo cell activity detection kit by luminescence (Promega-G7573).
(§3) Tumor cell lines were cultured in a 5% of CO2 incubator at 37° C. according to respective culture conditions; and periodic passage was performed, and cells positioned in a logarithmic phase were taken for planking.
(§4) 3) 90 μL of cell suspension was added into each well of the culture plate, and a culture solution containing no cell was added into blank control;
(§5) 4) the culture plate was cultured overnight in the 5% of CO2 incubator having relative humidity of 100% at 37° C.
(§6) Preparation of a 400× compound storage plate: the compound was diluted from the maximum concentration gradient to the lowest concentration with DMSO. […]
(§7) The following steps were performed according to the specification of the Promega CellTiter-Glo cell activity detection kit by luminescence (Promega-G7573). […]
(§8) 9) the luminescence signal was detected on the 2104 EnVision plate reader.

DB = assay: In vitro tumor cell proliferation (CellTiter-Glo), DB; assay type: cell-based; conditions: Homo sapiens, 72 h, read-out: Growth IC50
Protocol: as §1, §2, §3, §4, §5, §6, §7, §8

WSU-DLCL-2 = assay: In vitro tumor cell proliferation (CellTiter-Glo), WSU-DLCL-2; assay type: cell-based; conditions: Homo sapiens, WSUDLCL2; WSU-DLCL-2, 72 h; read-out: Growth IC50
Protocol: as §1, §2, §3, §4, §5, §6, §7, §8

LynA = LynA (Homo sapiens, UniProt P07948); assay: Btk selectivity over LynA (same kinase method, Btk replaced); assay type: biochemical; conditions: ratio of IC50 values
Protocol: Other kinases (e.g., inhibitory activity of Lck and LynA is determined by replacing the Btk with various kinases and performing operations the same as that in the above method).

Granta-519 = assay: In vitro tumor cell proliferation (CellTiter-Glo), Granta-519; assay type: cell-based; conditions: Homo sapiens, Granta-519, 72 h; read-out: Growth IC50
Protocol: as §1, §2, §3, §4, §5, §6, §7, §8

Btk = Btk (Homo sapiens, UniProt Q06187); assay: Determination of Btk enzyme inhibitory activity; assay type: biochemical; conditions: 2 nM BTK
Protocol: Determination of Btk Enzyme Inhibitory Activity
Buffer solution: 50 mM Hepes pH 7.0, 0.1 mM Orthovanadate, 5 mM MgCl2, 0.01% of BSA;
1 mM TK-peptide, […], 50 nM SEB;
Pre-incubation for 15 minutes;
Reaction at 23° C. for 90 minutes;
Color Development Reaction:
Developing buffer solution: 50 mM Hepes pH8.0, 0.8 M KF, 20 mM EDTA, 0.01% BSA;
Reaction at 23° C. for 60 minutes;

Chain of LynA (P07948 whole entry): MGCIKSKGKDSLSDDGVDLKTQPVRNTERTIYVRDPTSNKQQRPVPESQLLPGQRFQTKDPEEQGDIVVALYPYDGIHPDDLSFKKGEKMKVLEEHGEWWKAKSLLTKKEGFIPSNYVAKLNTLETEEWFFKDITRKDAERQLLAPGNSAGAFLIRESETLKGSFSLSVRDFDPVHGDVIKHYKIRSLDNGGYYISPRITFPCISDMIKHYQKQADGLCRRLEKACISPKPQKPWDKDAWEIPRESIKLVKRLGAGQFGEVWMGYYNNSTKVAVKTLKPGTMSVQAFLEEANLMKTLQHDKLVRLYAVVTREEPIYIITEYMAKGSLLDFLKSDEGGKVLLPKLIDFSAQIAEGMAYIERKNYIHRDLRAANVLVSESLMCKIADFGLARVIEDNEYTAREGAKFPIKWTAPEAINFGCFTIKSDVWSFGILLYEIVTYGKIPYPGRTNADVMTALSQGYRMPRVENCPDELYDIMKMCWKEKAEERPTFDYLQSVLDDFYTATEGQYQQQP
Chain of Btk (Q06187 whole entry): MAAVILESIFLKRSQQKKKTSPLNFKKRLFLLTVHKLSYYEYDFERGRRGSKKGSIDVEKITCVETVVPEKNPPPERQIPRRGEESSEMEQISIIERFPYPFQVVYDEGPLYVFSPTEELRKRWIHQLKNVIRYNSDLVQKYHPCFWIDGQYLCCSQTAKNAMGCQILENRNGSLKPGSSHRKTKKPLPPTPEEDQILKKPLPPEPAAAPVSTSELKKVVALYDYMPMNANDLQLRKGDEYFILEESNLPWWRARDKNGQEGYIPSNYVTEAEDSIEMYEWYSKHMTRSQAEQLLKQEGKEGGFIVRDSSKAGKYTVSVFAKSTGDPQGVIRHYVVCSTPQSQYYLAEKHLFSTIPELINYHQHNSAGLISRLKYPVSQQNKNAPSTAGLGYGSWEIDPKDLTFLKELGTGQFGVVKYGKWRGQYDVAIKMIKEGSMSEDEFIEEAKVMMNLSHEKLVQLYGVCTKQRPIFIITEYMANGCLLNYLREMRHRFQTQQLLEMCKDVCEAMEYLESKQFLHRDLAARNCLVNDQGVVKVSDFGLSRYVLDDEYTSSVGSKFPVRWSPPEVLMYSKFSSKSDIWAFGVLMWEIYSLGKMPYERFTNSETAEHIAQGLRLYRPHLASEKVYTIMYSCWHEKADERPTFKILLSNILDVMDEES

C=CC(=O)NN1CCCC(n2nc(-c3ccc(Oc4ccccc4)cc3)c3c(N)ncnc32)C1 (centres unmarked) [Embodiment 6, N-(3-(4-amino-3-(4-phenoxyphenyl)-1H-pyrazolo[3,4-D]pyrimidine-1-yl)-1-piperidyl)-acrylamide]
Remaining (*NCF = 60 min) ([1]; HLM 0.5, 60 min, no co-factor): 105.9%
Remaining (T = 60 min) ([1]; HLM 0.5, 60 min with NADPH regenerating system): 0.2%
half-life at 1 µM ([1]; human, liver microsomes, pH 7.4, HLM 0.5 (0.5 mg protein/mL)): 4.3 min
microsomal CLint at 1 µM ([1]; human, liver microsomes, pH 7.4, HLM 0.5, read-out: CLint(mic)): 325 µL/min/mg
CLint scaled at 1 µM ([1]; human, liver microsomes, pH 7.4, HLM 0.5, scaled from CLint(mic)): 292 mL/min/kg
IC50 (OCI-LY10): 6 nM
IC50 (DB): > 10000 nM
IC50 (WSU-DLCL-2): 921 nM
LynA[IC50]/Btk[IC50] (LynA): 137
IC50 (Granta-519): 7060 nM
IC50 (Btk): 0.27 nM
